Laboratory results from US20120208781A1, “AMINOGLYCOSIDE DOSING REGIMENS” (Achaogen, Inc., priority 2009, published 2012).
≈ marks a conversion by molar mass, not a printed value. Where “and” joins values, the source holds several entries; their conditions need not be identical. Equal entries are not always repeated.

Columns and labels:
[1] = system: A. baumannii (AB); assay: MIC, broth microdilution, Brooklyn hospital isolates: A. baumannii; assay type: cell-based
Experimental: (§1) In another study, the activity of Compound 1 against a collection of contemporary Gram-negative bacteria was determined. Unique patient isolates of P. aeruginosa (PA), A. baumannii (AB), K. pneumoniae (KP), E. coli (EC), and Enterobacter spp. (EB) from prior surveys at 16 Brooklyn, N.Y. hospitals were selected based on resistance patterns. The majority of isolates were fingerprinted by automated ribotyping. MICs were performed by broth microdilution. PCR was used to identify aminoglycoside-modifying enzymes (AMEs) in AB and KP and the KPC gene in Enterobacteriaceae (EN). The expression of the efflux genes mexA, C, E and X in PA, and adeB in AB was assessed by real-time RT-PCR.

[2] = First-in-human phase 1 study: urine levels of Compound 1; assay type: in vivo; details: Cohort 4 (15 mg/kg)
Experimental: Pooled urine samples for PK analysis were obtained with the single dose and first and last multiple-dose.
The levels of Compound 1 present in the urine of Cohort 4 patients during the 24 hours following administration of the third multi-dose was also examined. […] Perhaps of even greater significance, the concentration of Compound 1 achieved in the urine was at least 1 mg/ml immediately following administration, and remained over 0.1 mg/ml for 12 hours.

[3] = Phase 1 study 15 mg/kg/day once daily for five days: safety, BUN and Cr; assay type: in vivo, human; details: healthy subjects
Experimental: An additional randomized, double-blind, placebo-controlled study was performed to assess the safety and pharmacokinetics of Compound 1 following IV administration to healthy adult volunteers according to a high dose, short course regimen of 15 mg/kg/day of Compound 1 administered once daily for five days. Compound 1 was formulated as a sterile solution at a concentration of 50 mg/mL in 10 mL glass vials for intravenous (IV) administration (“Compound 1 Injection”). Eight healthy subjects were randomized to receive either Compound 1 Injection or placebo administered IV by 10 minute infusion daily for five days. Seven subjects received 5 doses and one received 3 doses (early withdrawal for personal reasons).
BUN and creatine (Cr) were assessed daily for each of the five days prior to dosing and at day 5 post-dosing to assess renal function following this high dose, short course regimen.

[4] = system: Enterobacteriaceae (ENT); assay: MIC, CLSI broth microdilution, worldwide isolates: Enterobacteriaceae; assay type: cell-based
Excerpt: In the first study, a total of 235 isolates were collected from medical centers worldwide and tested for susceptibility to Compound 1 and comparator agents by CLSI broth microdilution methods. […] Non-ENT GN pathogens included WT P. aeruginosa (PSA) and Acinetobacter spp. (ACB), and carbapenem (CARB)-R strains, including those with MBL and OXA enzymes, SA and coagulase-negative staphylococci (CoNS) included oxacillin-susceptible (MSSA/MS-CoNS) and —R (MRSA/MR-CoNS) strains.
Minimum inhibitory concentrations (MIC) were determined by reference Clinical and Laboratory Standards Institute (CLSI) broth microdilution methods per M7-A7 [2006]. Briefly, serial two-fold dilutions of Compound 1 and comparator AGs (together, “the test compounds”) were prepared at 2× concentration in appropriate diluent. The dilutions were mixed in 96-well assay plates with bacterial inoculum. Bacteria were suspended in sterile saline and added to each assay plate to obtain a final concentration of 5.5×10^5 CFU/mL. The plates were incubated at 35° C. for 20 hours in ambient air. […] After incubation, assay plates were read using a microtiter plate reader at 600 nm.

[5] = system: Enterobacter spp. (EB); assay: MIC, broth microdilution, Brooklyn hospital isolates: Enterobacter spp.; assay type: cell-based; details: Enterobacter; EB (n = 30)
Experimental: as §1

[6] = Acinetobacter baumannii, AB (n = 38)
[7] = 15 mg/kg/day IV once daily for five days, one line per Subject ID, 15 mg/kg/day
[8] = Enterobacteriaceae, KPC, NMC, SME (15)

SMILES: CN[C@@H]1[C@@H](O)[C@@H](O[C@@H]2[C@@H](O)[C@H](O[C@H]3OC(CNCCO)=CC[C@H]3N)[C@@H](N)C[C@H]2NC(=O)[C@@H](O)CCN)OC[C@]1(C)O [Compound 1, 6′-(2-Hydroxy-ethyl)-1-(4-amino-2(S)-hydroxy-butyryl)-sisomicin]
- isolates with Compound 1 MICs >8 ([1]; AB isolates with increased expression of adeB): 69%
- isolates with Compound 1 MICs>4 ([1]; AB isolates with the AME aacA4): 93%
- isolates with Compound 1 MICs >8 ([1]; AB isolates without increased expression of adeB): 13%
- isolates with Compound 1 MICs>4 ([1]; AB isolates without the AME aacA4): 50%
- MIC50 [1, 6]: 8 µg/mL (≈ 13.5 µM)
- MIC90 [1, 6]: > 16 µg/mL
- MIC ([1]; Acinetobacter baumannii, AB isolates without AMEs, read-out: MICs achieved by some isolates): > 16 µg/mL
- urine concentration immediately following administration [2]: at least 1 mg/ml
- urine concentration maintained for 12 hours [2]: over 0.1 mg/ml
- administered Compound 1 excreted within 24 hours (upper estimate) ([2]; after third multi-dose): about 90%
- average fraction excreted in urine in an unchanged form over 24 hours ([2]; after third multi-dose): 75%
- severity of adverse events ([3]; 15 mg/kg/day IV 10 minute infusion, five days): mild to moderate
- Serum Creatine, Pre-dose ([3]; 15 mg/kg/day IV once daily for five days, fifth pre-dose column, one line per Subject ID, 15 mg/kg/day): 0.7 mg/dL (2×) and 0.8 mg/dL and 1.2 mg/dL (2×) and 1.1 mg/dL and 1.0 mg/dL
- BUN, Post-dose 5 [3, 7]: 13 mg/dL (3×) and 14 mg/dL and 9 mg/dL and 20 mg/dL and 15 mg/dL
- BUN, Pre-dose 1 [3, 7]: 9 mg/dL (2×) and 10 mg/dL and 13 mg/dL and 5 mg/dL and 15 mg/dL and 19 mg/dL and 14 mg/dL
- BUN, Pre-dose 2 [3, 7]: 18 mg/dL and 16 mg/dL and 19 mg/dL and 17 mg/dL (2×) and 8 mg/dL and 20 mg/dL and 22 mg/dL
- BUN, Pre-dose 3 [3, 7]: 13 mg/dL and 18 mg/dL (2×) and 19 mg/dL and 17 mg/dL and 9 mg/dL and 15 mg/dL and 14 mg/dL
- BUN, Pre-dose 4 [3, 7]: 13 mg/dL and 14 mg/dL (2×) and 12 mg/dL and 8 mg/dL and 17 mg/dL and 19 mg/dL and 16 mg/dL
- BUN, Pre-dose 5 [3, 7]: 16 mg/dL (3×) and 13 mg/dL and 14 mg/dL and 11 mg/dL and 15 mg/dL
- Serum Creatine, Post-dose 5 [3, 7]: 0.6 mg/dL (2×) and 1.0 mg/dL and 0.7 mg/dL and 1.1 mg/dL and 0.9 mg/dL (2×)
- Serum Creatine, Pre-dose 1 [3, 7]: 0.7 mg/dL (2×) and 0.6 mg/dL (2×) and 0.9 mg/dL (2×) and 1.2 mg/dL and 1.0 mg/dL
- Serum Creatine, Pre-dose 2 [3, 7]: 0.7 mg/dL and 0.6 mg/dL (2×) and 0.9 mg/dL (2×) and 1.1 mg/dL (2×) and 1.3 mg/dL
- Serum Creatine, Pre-dose 3 [3, 7]: 0.6 mg/dL (3×) and 0.7 mg/dL and 1.0 mg/dL and 1.1 mg/dL and 0.9 mg/dL and 0.8 mg/dL
- Serum Creatine, Pre-dose 4 [3, 7]: 0.6 mg/dL (4×) and 1.0 mg/dL and 1.2 mg/dL and 0.9 mg/dL (2×)
- changes in BUN or Cr at day 5 post-dosing ([3]; 15 mg/kg/day IV, five days): no substantial changes in either BUN or Cr
- tolerability ([3]; 15 mg/kg/day IV, five days): well-tolerated
- ototoxicity or nephrotoxicity ([3]; 15 mg/kg/day IV, five days, through the treatment period): No evidence of ototoxicity or nephrotoxicity
- MIC50 [4]: ≤ 0.25 µg/mL
- MIC90 [4]: 2 µg/mL (≈ 3.37 µM)
- Cumulative % inhibited at Cmpd. MIC 1 ([4]; Enterobacteriaceae (125)): 80.0%
- Cumulative % inhibited at Cmpd. MIC 2 ([4]; Enterobacteriaceae (125)): 92.0%
- Cumulative % inhibited at Cmpd. MIC 4 ([4]; Enterobacteriaceae (125)): 98.4%
- Cumulative % inhibited at Cmpd. MIC 8 ([4]; Enterobacteriaceae (125)): 98.4%
- Cumulative % inhibited at Cmpd. MIC 16 ([4]; Enterobacteriaceae (125)): 98.4%
- Cumulative % inhibited at Cmpd. MIC 32 ([4]; Enterobacteriaceae (125)): 98.4%
- Cumulative % inhibited at Cmpd. MIC 64 ([4]; Enterobacteriaceae (125)): 98.4%
- Cumulative % inhibited at Cmpd. MIC >64 ([4]; Enterobacteriaceae (125)): 100.0%
- Cumulative % inhibited at Cmpd. MIC ≦0.5 ([4]; Enterobacteriaceae (125)): 56.0%
- Cumulative % inhibited at Cmpd. MIC 1 ([4]; Enterobacteriaceae, AmpC (20)): 85.0%
- Cumulative % inhibited at Cmpd. MIC 2 ([4]; Enterobacteriaceae, AmpC (20)): 95.0%
- Cumulative % inhibited at Cmpd. MIC 4 ([4]; Enterobacteriaceae, AmpC (20)): 95.0%
- Cumulative % inhibited at Cmpd. MIC 8 ([4]; Enterobacteriaceae, AmpC (20)): 95.0%
- Cumulative % inhibited at Cmpd. MIC 16 ([4]; Enterobacteriaceae, AmpC (20)): 95.0%
- Cumulative % inhibited at Cmpd. MIC 32 ([4]; Enterobacteriaceae, AmpC (20)): 95.0%
- Cumulative % inhibited at Cmpd. MIC 64 ([4]; Enterobacteriaceae, AmpC (20)): 95.0%
- Cumulative % inhibited at Cmpd. MIC >64 ([4]; Enterobacteriaceae, AmpC (20)): 100.0%
- Cumulative % inhibited at Cmpd. MIC ≦0.5 ([4]; Enterobacteriaceae, AmpC (20)): 75.0%
- Cumulative % inhibited at Cmpd. MIC 1 ([4]; Enterobacteriaceae, ESBL (20)): 90.0%
- Cumulative % inhibited at Cmpd. MIC 2 ([4]; Enterobacteriaceae, ESBL (20)): 95.0%
- Cumulative % inhibited at Cmpd. MIC 4 ([4]; Enterobacteriaceae, ESBL (20)): 95.0%
- Cumulative % inhibited at Cmpd. MIC 8 ([4]; Enterobacteriaceae, ESBL (20)): 95.0%
- Cumulative % inhibited at Cmpd. MIC 16 ([4]; Enterobacteriaceae, ESBL (20)): 95.0%
- Cumulative % inhibited at Cmpd. MIC 32 ([4]; Enterobacteriaceae, ESBL (20)): 95.0%
- Cumulative % inhibited at Cmpd. MIC 64 ([4]; Enterobacteriaceae, ESBL (20)): 95.0%
- Cumulative % inhibited at Cmpd. MIC >64 ([4]; Enterobacteriaceae, ESBL (20)): 100.0%
- Cumulative % inhibited at Cmpd. MIC ≦0.5 ([4]; Enterobacteriaceae, ESBL (20)): 65.0%
- Cumulative % inhibited at Cmpd. MIC 1 [4, 8]: 100.0%
- Cumulative % inhibited at Cmpd. MIC ≦0.5 [4, 8]: 60.0%
- Cumulative % inhibited at Cmpd. MIC 1 ([4]; Enterobacteriaceae, MBL (10)): 80.0%
- Cumulative % inhibited at Cmpd. MIC 2 ([4]; Enterobacteriaceae, MBL (10)): 90.0%
- Cumulative % inhibited at Cmpd. MIC 4 ([4]; Enterobacteriaceae, MBL (10)): 100.0%
- Cumulative % inhibited at Cmpd. MIC ≦0.5 ([4]; Enterobacteriaceae, MBL (10)): 80.0%
- Cumulative % inhibited at Cmpd. MIC 1 ([4]; Enterobacteriaceae, WT (60)): 70.0%
- Cumulative % inhibited at Cmpd. MIC 2 ([4]; Enterobacteriaceae, WT (60)): 88.3%
- Cumulative % inhibited at Cmpd. MIC 4 ([4]; Enterobacteriaceae, WT (60)): 100.0%
- Cumulative % inhibited at Cmpd. MIC ≦0.5 ([4]; Enterobacteriaceae, WT (60)): 41.7%
- MIC50 [5]: 1 µg/mL (≈ 1.69 µM)
- MIC90 [5]: 4 µg/mL (≈ 6.75 µM)
